# Measurements published in US20250177408A1, “INHIBITOR OF INTERACTION BETWEEN YAP/TAZ AND TEAD, PREPARATION THEREOF, PHARMACEUTICAL COMPOSITION THEREOF AND USE THEREOF” (ETERN BIOPHARMA (SHANGHAI) CO., LTD., priority 2022, published 2025).
# Counter-ions that a name gives are not always drawn. Like-named read-outs stand apart in the source and are kept apart here.
# Key:
# [1] = biological target: YAP-TEAD protein interaction (His-TEAD1 (209-426) protein, Bio-YAP peptide (60-100)) (Homo sapiens, UniProt P28347); assay: YAP-TEAD protein interaction HTRF experiment; assay type: binding; settings: His-TEAD1 (209-426) 10 nM, Bio-YAP peptide 50 nM, read-out: Activity of each compound in blocking YAP-TEAD protein interaction (grades of IC50 values)
# Procedure, shortened: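 His-TEAD1 (209-426) at 10 nM final was preincubated 20 min at RT with compounds (10-point 3-fold dilutions, duplicates, 1% DMSO), then Bio-YAP peptide, 10 min. Anti-His-Eu cryptate/streptavidin-XL665 added for 1 h at RT; HTRF read at ex 320 nm, Em665/Em620 ratio ×10000, IC50 from % inhibition.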
# MSTO-211H cells = assay: Cell proliferation inhibition experiment (CellTiter-Glo); assay type: cell-based; settings: 96 hours, read-out: Inhibitory activity of each compound on the proliferation of MSTO-211H cells (grades of IC50 values)
# Procedure, shortened: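 MSTO-211H cells (1500/well, RPMI1640 + 10% FBS) were plated overnight at 37° C, 5% CO2, then exposed in duplicate to 9 three-fold compound dilutions (DMSO ≤0.5% final) for 96 hours. Viability was read as CellTiter-Glo luminescence after 10 min at room temperature. IC50 was derived from inhibition of the CTG signal.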
# YAP-TEAD protein interaction (His-TEAD1 (209-426) protein, Bio-YAP peptide (60-100)), sequence (P28347 209-426): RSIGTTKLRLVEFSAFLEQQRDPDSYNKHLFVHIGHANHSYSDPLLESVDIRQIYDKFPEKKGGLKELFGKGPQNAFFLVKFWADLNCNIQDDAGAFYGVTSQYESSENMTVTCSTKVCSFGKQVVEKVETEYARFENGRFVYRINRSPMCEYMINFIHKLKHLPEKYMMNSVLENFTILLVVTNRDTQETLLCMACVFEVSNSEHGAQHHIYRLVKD
SMILES,IC50 [1],IC50 (MSTO-211H cells; Homo sapiens),IC50 (MSTO-211H cells)
"CNC[C@@]1(c2ccccc2)Cc2c(cc(F)c(Cl)c2-c2c(C(N)=O)cc3c(c2F)OCc2nn(C)cc2-3)O1 (atropisomer, axis not shown) [Compound 41, (S)-7-((S)-5-Chloro-6-fluoro-2-((methylamino)methyl)-2-phenyl-2,3-dihydrobenzofuran-4-yl)-6-fluoro-2-methyl-2,4-dihydrochromeno[3,4-c]pyrazole-8-carboxamide]",< 50 nM,< 200 nM,–
"Cn1nc2c(cc1=O)Oc1c(cc(C(N)=O)c(-c3c(Cl)c(F)cc4c3C[C@](c3ccccc3)([C@@H]3CCCN3)O4)c1F)O2 (atropisomer, axis not shown) [Compound 123, (S)-7-((S)-5-Chloro-6-fluoro-2-phenyl-2-((S)-pyrrolidin-2-yl)-2,3-dihydrobenzofuran-4-yl)-6-fluoro-1-methyl-3-oxo-2,3-trihydrobenzo [5,6][1,4]dioxo [2,3-c]pyridazine-8-carboxamide]",< 50 nM,200 to 500 nM,–
"NC(=O)c1cc2c(c(F)c1-c1c(Cl)c(F)cc3c1C[C@](c1ccccc1)([C@@H]1CCCN1)O3)Oc1c(cnn(CC(F)F)c1=O)O2 (atropisomer, axis not shown) [Compound 120, (S)-8-((S)-5-Chloro-6-fluoro-2-phenyl-2-((S)-pyrrolidin-2-yl)-2,3-dihydrobenzofuran-4-yl)-9-fluoro-2-(2,2-difluoroethyl)-1-oxo-1,2-dihydrobenzo[5,6][1,4]dioxo[2,3-d]pyridazine-7-carboxamide]",< 50 nM,< 200 nM,–
"COCCn1ncc2c(c1=O)Oc1c(cc(C(N)=O)c(-c3c(Cl)c(F)cc4c3C[C@](c3ccccc3)([C@@H]3CCCN3)O4)c1F)O2 (atropisomer, axis not shown) [Compound 149, (R)-8-((S)-5-Chloro-6-fluoro-2-phenyl-2-((S)-pyrrolidin-2-yl)-2,3-dihydrobenzofuran-4-yl)-9-fluoro-2-(2-methoxyethyl)-1-oxo-1,2-dihydrobenzo[5,6][1,4]dioxa[2,3-d]pyridazine-7-carboxamide]",< 50 nM,< 200 nM,–
"Cn1ncc2c(c1=O)Oc1cc(C(N)=O)c(-c3c(Cl)c(F)cc4c3CC(c3ccccc3)(C3CCCN3)O4)c(F)c1O2 [Compound 106, (S)-8-((S)-5-Chloro-6-fluoro-2-phenyl-2-((S)-pyrrolidin-2-yl)-2,3-dihydrobenzofuran-4-yl)-9-fluoro-3-methyl-4-oxo-3,4-dihydrobenzo[5,6][1,4]dioxo[2,3-d]pyridazine-7-carboxamide]",< 50 nM,200 to 500 nM,–
"NC(=O)c1cc2c(c(F)c1-c1c(Cl)c(F)cc3c1C[C@](c1ccccc1)([C@@H]1CCCN1)O3)Oc1cnn(CCF)c(=O)c1O2 (atropisomer, axis not shown) [Compound 119, (S)-8-((S)-5-Chloro-6-fluoro-2-phenyl-2-((S)-pyrrolidin-2-yl)-2,3-dihydrobenzofuran-4-yl)-9-fluoro-3-(2-fluoroethyl)-4-oxo-3,4-dihydrobenzo[5,6][1,4]dioxo[2,3-d]pyridazine-7-carboxamide]",< 50 nM,200 to 500 nM,–
"CNC[C@@]1(c2ccccc2)Cc2c(cc(F)c(Cl)c2-c2c(C(N)=O)cc3c(c2F)OCCN3)O1 (atropisomer, axis not shown) [Compound I-17, (S)-7-((S)-5-Chloro-6-fluoro-2-((methylamino)methyl)-2-phenyl-2,3-dihydrobenzofuran-4-yl)-8-fluoro-3,4-dihydro-2H-benzo[b][1,4]oxazine-6-carboxamide]",< 50 nM,< 200 nM,–
"CCn1ncc2c(c1=O)Oc1cc(C(N)=O)c(-c3c(Cl)c(F)cc4c3C[C@](c3ccccc3)([C@@H]3CCCN3)O4)c(F)c1O2 (atropisomer, axis not shown) [Compound 110, (S)-8-((S)-5-Chloro-6-fluoro-2-phenyl-2-((S)-pyrrolidin-2-yl)-2,3-dihydrobenzofuran-4-yl)-3-ethyl-9-fluoro-4-oxo-3,4-dihydrobenzo[5,6][1,4]dioxo [2,3-d]pyridazine-7-carboxamide]",< 50 nM,200 to 500 nM,–
"NC(=O)c1cc2c(c(F)c1-c1c(Cl)c(F)cc3c1C[C@](c1ccccc1)([C@@H]1CCCN1)O3)Oc1ccnnc1O2 [Compound 103, (S)-7-((S)-5-Chloro-6-fluoro-2-phenyl-2-((S)-pyrrolidin-2-yl)-2,3-dihydrobenzofuran-4-yl)-6-fluorobenzo[5,6][1,4]dioxo[2,3-c]pyridazine-8-carboxamide]",< 50 nM,–,500 to 5000 nM
"Cn1cc2c(n1)COc1c-2cc(C(N)=O)c(-c2c(Cl)c(F)cc3c2C[C@](c2ccccc2)([C@@H]2CC4(CC4)CN2)O3)c1F (atropisomer, axis not shown) [Compound 9, (S)-7-((S)-5-Chloro-6-fluoro-2-phenyl-2-((S)-5-azaspiro[2.4]heptan-6-yl)-2,3-dihydrobenzofuran-4-yl)-6-fluoro-2-methyl-2,4-dihydrochromeno[3,4-c]pyrazole-8-carboxamide hydrochloride]",< 50 nM,< 200 nM,–
"NC(=O)c1cc2c(c(F)c1-c1c(Cl)c(F)cc3c1C[C@](c1ccccc1)([C@@H]1CCCN1)O3)Oc1ncn(C3CC3)c(=O)c1O2 (atropisomer, axis not shown) [Compound 140]",< 50 nM,< 200 nM,–
"NC(=O)c1cc2c(c(F)c1-c1c(Cl)c(F)cc3c1C[C@](c1ccccc1)([C@@H]1CCCN1)O3)OCc1n[nH]cc1-2 (atropisomer, axis not shown) [Compound 46, (S)-7-((S)-5-Chloro-6-fluoro-2-phenyl-2-((S)-pyrrolidin-2-yl)-2,3-dihydrobenzofuran-4-yl)-6-fluoro-2,4-dihydrochromeno[3,4-c]pyrazole-8-carboxamide]",< 50 nM,< 200 nM,–
"[2H]C1([2H])CC[C@]([2H])([C@@]2(c3ccccc3)Cc3c(cc(F)c(Cl)c3-c3c(C(N)=O)cc4c(c3F)Oc3c(cnn(CC(F)F)c3=O)O4)O2)N1 (atropisomer, axis not shown) [Compound 152, (S)-8-((S)-5-Chloro-6-fluoro-2-phenyl-2-((S)-pyrrolidin-2-yl-2,5,5-d3)-2,3-dihydrobenzofuran-4-yl)-2-(2,2-difluoroethyl)-9-fluoro-1-oxo-1,2-dihydrobenzo [5,6][1,4]dioxo [2,3-d]pyridazine-7-carboxamide]",< 50 nM,< 200 nM,–
"NC(=O)c1cc2c(c(F)c1-c1c(Cl)c(F)cc3c1C[C@](c1ccccc1)([C@@H]1CCCN1)O3)Oc1ncn(CCF)c(=O)c1O2 (atropisomer, axis not shown) [Compound 138, (S)-8-((S)-5-Chloro-6-fluoro-2-phenyl-2-((S)-pyrrolidin-2-yl)-2,3-dihydrobenzofuran-4-yl)-9-fluoro-3-(2-fluoroethyl)-4-oxo-3,4-dihydrobenzo [5,6][1,4]dioxo [2,3-d]pyrimidine-7-carboxamide]",< 50 nM,< 200 nM,–
"NC(=O)c1cc2c(c(F)c1-c1c(Cl)c(F)cc3c1C[C@](c1ccccc1)([C@@H]1CCCN1)O3)Oc1c(cnn(CCF)c1=O)O2 (atropisomer, axis not shown) [Compound 118, (S)-8-((S)-5-Chloro-6-fluoro-2-phenyl-2-((S)-pyrrolidin-2-yl)-2,3-dihydrobenzofuran-4-yl)-9-fluoro-2-(2-fluoroethyl)-1-oxo-1,2-dihydrobenzo[5,6][1,4]dioxo[2,3-d]pyridazine-7-carboxamide]",< 50 nM,< 200 nM,–
"NC(=O)c1cc2c(c(F)c1-c1c(Cl)c(F)cc3c1C[C@](c1ccccc1)([C@@H]1CCCN1)O3)Oc1nc(CO)cnc1O2 (atropisomer, axis not shown) [Compound 101, (S)-8-((S)-5-Chloro-6-fluoro-2-phenyl-2-((S)-pyrrolidin-2-yl)-2,3-dihydrobenzofuran-4-yl)-9-fluoro-2-(hydroxymethyl)benzo[5,6] [1,4]dioxo [2,3-b]pyrazine-7-carboxamide]",< 50 nM,< 200 nM,–
"Cn1ncc2c(F)c(-c3c(Cl)c(F)cc4c3C[C@](c3ccccc3)([C@@H]3CCCN3)O4)c(C(N)=O)cc21 (atropisomer, axis not shown) [Compound I-28, (S)-5-((S)-5-Chloro-6-fluoro-2-phenyl-2-((S)-pyrrolidin-2-yl)-2,3-dihydrobenzofuran-4-yl)-4-fluoro-1-methyl-1H-indazole-6-carboxamide]",< 50 nM,< 200 nM,–
"NC(=O)c1cc2cccnc2c(F)c1-c1c(Cl)c(F)cc2c1C[C@](c1ccccc1)([C@@H]1CCCN1)O2 (atropisomer, axis not shown) [Compound 4, (S)-7-((S)-5-Chloro-6-fluoro-2-phenyl-2-((S)-pyrrolidin-2-yl)-2,3-dihydrobenzofuran-4-yl)-8-fluoroquinoline-6-carboxamide]",< 50 nM,< 200 nM,–
"[2H]C1([2H])CC[C@]([2H])([C@@]2(c3ccccc3)Cc3c(cc(F)c(Cl)c3-c3c(C(=O)NC)cc4c(c3F)Oc3c(cnn(CC(F)(F)F)c3=O)O4)O2)N1 (atropisomer, axis not shown) [Compound 157, (S)-8-((S)-5-Chloro-6-fluoro-2-phenyl-2-((S)-pyrrolidin-2-yl-2,5,5-d3)-2,3-dihydrobenzofuran-4-yl)-9-fluoro-N-methyl-1-oxo-2-(2,2,2-trifluoroethyl)-1,2-dihydroxybenzo[5,6][1,4] dioxo[2,3-d]pyridazine-7-carboxamide]",< 50 nM,< 200 nM,–
